Reference: patent US20050197371A1, “Urea derivatives as PDGFR modulators” (Ambit Biosciences Corporation, priority 2003, published 2005)

target: T1, PDGFRB(DKIN) (PDGFR-β) (Homo sapiens, UniProt P09619); assay: Phage-display competitive binding assay, PDGFRB(DKIN); settings: T7 phage displaying human PDGFR-β, DKIN construct; read-out: Binding Assay: PDGFRB(DKIN)
T1 construct: PDGFRB(DKIN)
Method: The term “ND” represents non-determined values.
(§1) Briefly, T7 phage displaying human PDGFR-β were incubated with an affinity matrix coated with known PDGFR-β inhibitor in the presence of various concentrations of the soluble competitor molecules.

| Structure (SMILES) | Kd |
| --- | --- |
| CC(C)(C)c1cc(NC(=O)Nc2ccc(NC(=O)c3ccccn3)cc2)no1 [Compound N188] | < 100 nM |
| COc1ccc(NC(=O)Nc2cc(C(C)(C)C)no2)cc1 [Compound A30] | < 100 nM |
| CC(C)(C)c1cc(NC(=O)Nc2ccc(NC(=O)c3cc(Cl)cc(Cl)c3)cc2)no1 [Compound N29] | 100 to 1000 nM |
| CC(C)(C)c1cc(NC(=O)Nc2ccc(OCc3ccc4nonc4c3)cc2)no1 [Compound G55] | 100 to 1000 nM |
| CC(C)(C)c1cc(NC(=O)Nc2ccc(NC(=O)c3cccc4nsnc34)cc2)no1 [Compound N109] | < 100 nM |
| CC(C)(C)c1cc(NC(=O)Nc2ccc(NC(=O)c3ccc(-n4cc(-c5ccncn5)cn4)cc3)cc2)no1 [Compound N76] | 100 to 1000 nM |
| Cc1ccc(CNc2ccc(NC(=O)Nc3cc(C(C)(C)C)on3)cc2)cc1 [Compound O9] | 100 to 1000 nM |
| CC(C)(C)c1cc(NC(=O)Nc2ccc(NC(=O)c3cc(O)c4cccc(O)c4n3)cc2)no1 [Compound N176] | 1000 to 10000 nM |
| CC(C)(C)c1cc(NC(=O)Nc2ccc(NC(=O)c3ccccc3Cl)cc2)no1 [Compound N23] | < 100 nM |
| CC(C)(C)c1cc(NC(=O)Nc2ccc(NC(=O)c3cc4cc(Br)ccc4s3)cc2)no1 [Compound N17] | < 100 nM |
| CC(C)(C)c1cc(NC(=O)Nc2ccc(NC(=O)c3cc4cccc5c4n(c3=O)CC5)cc2)no1 [Compound N60] | < 100 nM |
| CC(C)(C)c1cc(NC(=O)Nc2ccc(OCc3ccccc3)cc2)no1 [Compound G31] | < 100 nM |
| CC(C)(C)c1cc(NC(=O)Nc2ccc(NC(=O)c3cc(Cl)nnc3Cl)cc2)no1 [Compound N174] | 100 to 1000 nM |
| COc1cc(NC(=O)CCC(=O)N2CCNC(=O)CC2)ccc1NC(=O)Nc1cc(C(C)(C)C)on1 [Compound N172] | 1000 to 10000 nM |
| CC(C)(C)c1cnc(CSc2cnc(NC(=O)Nc3ccon3)s2)o1 | 1000 to 10000 nM |
| CC(C)(C)c1cc(NC(=O)Nc2ccc(NC(=O)c3cccc(OC(F)F)c3)cc2)no1 [Compound N25] | 100 to 1000 nM |
| CC(C)(C)c1cc(NC(=O)Nc2ccc(NC(=O)c3cn4nc(Cl)ccc4n3)cc2)no1 [Compound N9] | < 100 nM |
| CC(C)(C)c1cc(NC(=O)Nc2ccc(NC(=O)C3CCCCC3)cc2)no1 [Compound N91] | 100 to 1000 nM |
| CC(C)c1ccc(NC(=O)Nc2cc(C(C)(C)C)on2)cc1 [Compound A25] | 100 to 1000 nM |
| COC(=O)c1ccc(C(=O)Nc2ccc(NC(=O)Nc3cc(C(C)(C)C)on3)cc2)nc1 [Compound N113] | < 100 nM |
| NC(=O)c1c(NC(=O)Nc2ccc(Cl)c(Cl)c2)sc2c1CCCC2 [Compound Z56] | > 10000 nM |
| CC(C)(C)c1cc(NC(=O)Nc2ccc(NC(=O)c3coc(-c4ccc(Cl)cc4)n3)cc2)no1 [Compound N124] | 100 to 1000 nM |
| CC(C)(C)c1cc(NC(=O)Nc2ccc(Cl)cc2)on1 [Compound A32] | < 100 nM |

| Structure (SMILES) | Kd |
| --- | --- |
| CC(C)(C)c1ccc(NC(=O)Nc2cc(C(C)(C)C)no2)cc1 [Compound A16] | 100 to 1000 nM |
| CC(C)(C)c1cc(NC(=S)Nc2ccc(N3CCOCC3)cc2)no1 [Compound F1, 1-(5-tert-butylisoxazol-3-yl)-3-(4-morpholinophenyl)thiourea] | > 10000 nM |
| CC(C)(C)c1cc(NC(=O)Nc2ccc(-c3nc(-c4ccc(C(F)(F)F)cc4)no3)cc2)no1 [Compound P8] | > 10000 nM |
| CC(C)(C)c1cc(NC(=O)Nc2ccc(NC(=O)c3ccc4sccc4c3)cc2)no1 [Compound N122] | < 100 nM |
| O=C(Nc1ccc(Cl)cc1)Nc1ccc(-n2nc(Br)c(Br)c2Br)cc1 [Compound Z49] | < 100 nM |
| Cn1c(SCC(=O)Nc2ccc(NC(=O)Nc3cc(C(C)(C)C)on3)cc2)nnc1-c1cccn(Cc2ccccc2)c1=O [Compound Z47] | 100 to 1000 nM |
| CC(C)(C)c1cc(NC(=O)Nc2ccc(C(=O)NCc3ccccc3)cc2)no1 [Compound N89] | 100 to 1000 nM |
| CC(C)(C)c1cc(NC(=O)Nc2ccc(NS(=O)(=O)c3ccccc3)cc2)no1 [Compound V1] | 1000 to 10000 nM |
| CC(C)(C)c1cc(NC(=O)Nc2ccc(C(=O)Nc3ccccc3)cc2)no1 [Compound N90] | 100 to 1000 nM |
| CC(C)(C)c1cc(NC(=O)Nc2ccc(OCCN3CCSCC3)cc2)no1 [Compound G53] | 100 to 1000 nM |
| O=C(c1cc2ccccc2[nH]1)c1cc2cc(O)ccc2[nH]1 | < 100 nM |
| CC(C)(C)c1cc(NC(=O)Nc2ccc(NC(=O)Cc3ccccc3)cc2)no1 [Compound N35] | 100 to 1000 nM |
| CCOC(=O)NN(C(=O)Nc1cc(C(C)(C)C)on1)c1ccc(OC)cc1 [Compound J13] | > 10000 nM |
| CC(C)(C)c1cc(NC(=O)Nc2ccc(OCc3ccccc3-c3ccccc3)cc2)no1 [Compound G8] | 100 to 1000 nM |
| CN1CN(c2ccc(OCc3ccccc3)cc2)C(=O)N(c2cc(C(C)(C)C)on2)C1 [Compound E4] | 100 to 1000 nM |
| Cc1nnsc1C(=O)Nc1ccc(NC(=O)Nc2cc(C(C)(C)C)on2)cc1 [Compound N18] | 100 to 1000 nM |
| Cc1ccc(NC(=O)Nc2cc(C(C)(C)C)on2)cc1 [Compound A33] | < 100 nM |
| C[C@H](NC(=O)c1ccc(NC(=O)Nc2cc(C(C)(C)C)on2)cc1)c1ccccc1 [Compound N88] | 100 to 1000 nM |
| Cc1ccccc1-c1noc(-c2ccc(NC(=O)Nc3cc(C(C)(C)C)on3)cc2)n1 [Compound P4] | < 100 nM |
| CC(C)(C)c1cc(NC(=O)Nc2ccc(NC(=O)c3ccc4ccccc4c3)cc2)no1 [Compound N28] | < 100 nM |
| CC(C)(C)c1cc(NC(=O)Nc2ccc(OC/C=C/c3ccccc3Cl)cc2)no1 [Compound G26] | < 100 nM |
| CC(C)(C)c1cc(NC(=O)Nc2ccc(OCc3ccccc3C(F)(F)F)cc2)no1 [Compound G4] | 100 to 1000 nM |
| Cc1cccnc1C(=O)Nc1ccc(NC(=O)Nc2cc(C(C)(C)C)on2)cc1 [Compound N41] | < 100 nM |

| Structure (SMILES) | Kd |
| --- | --- |
| CCOc1ccc(NC(=O)Nc2cc(C(C)(C)C)on2)cc1 [Compound G20] | < 100 nM |
| Cc1ccc(NC(=O)c2ccc(NC(=O)Nc3cc(C(C)(C)C)on3)cc2)cc1 [Compound N84] | < 100 nM |
| CC(C)(C)c1cc(NC(=O)Nc2ccc(NC(=O)c3cc(N4CCOCC4)nc(N4CCOCC4)n3)cc2)no1 [Compound N54] | < 100 nM |
| CC(C)(C)c1cc(NC(=O)Nc2ccc(NC(=O)c3c(F)cccc3C(F)(F)F)cc2)no1 [Compound N95] | 1000 to 10000 nM |
| CC(Oc1ccc(NC(=O)Nc2cc(C(C)(C)C)on2)cc1)c1ccccc1 (stereo not drawn) [Compound G17] | 100 to 1000 nM |
| O=C(Nc1ccc(Cl)cc1)Nc1cc(C(F)(F)F)cc(Cl)n1 [Compound Z76] | > 10000 nM |
| CN(Cc1cccc([N+](=O)[O-])c1)C(=O)Nc1cc(C(C)(C)C)on1 [Compound J3] | 100 to 1000 nM |
| CC(C)(C)c1cc(NC(=O)Nc2ccc(NC(=O)/C=C/c3ccccc3Cl)cc2)no1 [Compound N40] | 100 to 1000 nM |
| COC(=O)c1ccc(C(=O)Nc2ccc(NC(=O)Nc3cc(C(C)(C)C)on3)cc2)nc1 [Compound N12] | 100 to 1000 nM |
| CC(C)(C)c1cc(NC(=O)Nc2ccc(NC(=O)c3csc(-c4ccncc4)n3)cc2)no1 [Compound N16] | < 100 nM |
| CC(C)(C)c1cc(NC(=O)Nc2ccc(NC(=O)c3cnc4ccccc4c3)cc2)no1 [Compound N108] | < 100 nM |
| CC(C)(C)c1cc(NC(=O)Nc2ccc(C(=O)Nc3ccc(OCC4CCC4)cc3)cc2)no1 [Compound N100] | 100 to 1000 nM |
| COc1cc(OC)nc(Oc2ccccc2C(=O)Nc2ccc(NC(=O)Nc3cc(C(C)(C)C)on3)cc2)n1 [Compound N47] | 100 to 1000 nM |
| COc1cccc(-c2ccc(C(=O)Nc3ccc(NC(=O)Nc4cc(C(C)(C)C)on4)cc3)o2)c1 [Compound N105] | 100 to 1000 nM |
| Cc1ccncc1C(=O)Nc1ccc(NC(=O)Nc2cc(C(C)(C)C)on2)cc1 [Compound N104] | 100 to 1000 nM |
| CC(C)(C)OC(=O)Nc1ccc(NC(=O)Nc2cc(C(C)(C)C)on2)cc1 [Compound N101] | 100 to 1000 nM |
| Cc1ccc(S(=O)(=O)Nc2ccc(NC(=O)Nc3cc(C(C)(C)C)on3)cc2)cc1 [Compound V2] | 1000 to 10000 nM |
| COc1cc2ncnc(Nc3ccc(NC(=O)Nc4cc(C(C)(C)C)on4)cc3)c2cc1OC [Compound O5] | < 100 nM |
| COc1ccc(C(=O)c2c[nH]c(C(=O)Nc3ccc(NC(=O)Nc4cc(C(C)(C)C)on4)cc3)c2)cc1 [Compound N177] | 1000 to 10000 nM |
| CSc1ncc(Br)c(C(=O)Nc2ccc(NC(=O)Nc3cc(C(C)(C)C)on3)cc2)n1 [Compound N114] | < 100 nM |
| CC(C)(C)c1cc(NC(=O)Nc2ccc(NC(=O)c3cccc4c3OCCO4)cc2)no1 [Compound N111] | 100 to 1000 nM |
| Cc1ccc(-c2cc(C(=O)Nc3ccc(NC(=O)Nc4cc(C(C)(C)C)on4)cc3)c(C)o2)cc1 [Compound N120] | 1000 to 10000 nM |
| CC(C)(C)c1cc(NC(=O)Nc2ccc(NC(=O)Cc3ccc(-c4ccccc4)cc3)cc2)no1 [Compound N38] | 100 to 1000 nM |

same assay, conditions: read-out: Binding Assay: PDGFRB(DKIN); T7 phage displaying human PDGFR-β, DKIN construct

| Structure (SMILES) | Kd |
| --- | --- |
| CC(C)(C)c1cc(NC(=O)Nc2ccc(NC(=O)c3cc4ccccc4cn3)cc2)no1 [Compound N106] | < 100 nM |
| CC(C)(C)c1cc(NC(=O)Nc2ccc(NC(=O)c3ncccc3O)cc2)no1 [Compound N134] | < 100 nM |

target: T2, PDGFRB(JMplus) (PDGFR-β) (Homo sapiens, UniProt P09619); assay: Phage-display competitive binding assay, PDGFRB(JMplus); settings: not given
T2 construct: PDGFRB(JMplus)
T2 sequence (P09619 600-962 limits assumed): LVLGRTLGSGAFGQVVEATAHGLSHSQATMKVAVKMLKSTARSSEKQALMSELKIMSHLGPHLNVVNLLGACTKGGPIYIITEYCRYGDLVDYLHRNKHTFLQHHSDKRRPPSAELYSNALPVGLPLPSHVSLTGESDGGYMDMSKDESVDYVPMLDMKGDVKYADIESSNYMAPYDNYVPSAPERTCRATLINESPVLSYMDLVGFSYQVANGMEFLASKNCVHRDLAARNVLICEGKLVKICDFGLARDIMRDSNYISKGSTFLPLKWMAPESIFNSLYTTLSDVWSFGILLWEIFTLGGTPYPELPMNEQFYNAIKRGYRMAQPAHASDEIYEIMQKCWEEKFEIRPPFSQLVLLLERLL
Method: as §1

| Structure (SMILES) | Kd |
| --- | --- |
| CC(C)(C)c1cc(NC(=O)Nc2ccc(NC(=O)c3ncccc3O)cc2)no1 [Compound N134] | < 100 nM |

same assay, conditions: T7 phage displaying human PDGFR-β, JMplus construct; read-out: Binding Assay: PDGFRB(JMplus)

| Structure (SMILES) | Kd |
| --- | --- |
| CC(C)(C)c1cc(NC(=O)Nc2ccc(NC(=O)c3ccccn3)cc2)no1 [Compound N188] | < 100 nM |

target: T3, PDGFRB(JMminus) (PDGFR-β) (Homo sapiens, UniProt P09619); assay: Phage-display competitive binding assay, PDGFRB(JMminus); settings: not given
T3 construct: PDGFRB(JMminus)
T3 sequence (P09619 600-962 limits assumed): as above
Method: as §1

| Structure (SMILES) | Kd |
| --- | --- |
| CC(C)(C)c1cc(NC(=O)Nc2ccc(NC(=O)c3ncccc3O)cc2)no1 [Compound N134] | < 100 nM |

same assay, conditions: T7 phage displaying human PDGFR-β, JMminus construct; read-out: Binding Assay: PDGFRB(JMminus)

| Structure (SMILES) | Kd |
| --- | --- |
| CC(C)(C)c1cc(NC(=O)Nc2ccc(NC(=O)c3ccccn3)cc2)no1 [Compound N188] | < 100 nM |
